Laboratory results published in patent US20230104936A1, “TRPML MODULATORS” (Casma Therapeutics, Inc., priority 2019, published 2023).

Tested on: TFEB
Experiment: TFEB nuclear translocation assay, HeLa wt cells
Format: cell-based
Conditions: Homo sapiens, HeLa, 2 h, 2 hrs compound treatment, Table 1 does not say HeLa wt or TRPML1 KO
Summary of the method: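 Cells are plated overnight, exposed to compounds for 2 hrs at 37° C, fixed with 4% PFA, blocked, and stained overnight at 4° C with rabbit anti-TFEB. After Alexa 488 secondary and Hoechst, nuclei and a perinuclear ring are segmented to give a nuclear:ring intensity ratio and AC50.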

Compound	AC50 [µM]
CN1Cc2cc(F)ccc2C12CCN(c1ccccc1NS(=O)(=O)c1ccc(S(=O)(=O)N(C)C)cc1)CC2 [Compound A-310, N4-(2-{5-fluoro-2-methyl-2,3-dihydrospiro[isoindole-1,4′-piperidin]-1′-yl}phenyl)-N1,N1-dimethylbenzene-1,4-disulfonamide; formic acid]	≤ 2
CN(C)S(=O)(=O)c1ccc(S(=O)(=O)Nc2cccc(Cl)c2N2CCOCC2)cc1 [Compound A-311, N4-[3-chloro-2-(morpholin-4-yl)phenyl]-N1,N1-dimethylbenzene-1,4-disulfonamide]	2.01 to 8
CN(C)S(=O)(=O)c1ccc(S(=O)(=O)Cc2cc(Cl)ccc2N2CCOCC2)cc1 [Compound A-312, 4-{[5-chloro-2-(morpholin-4-yl)phenyl]methanesulfonyl}-N,N-dimethylbenzene-1-sulfonamide]	≥ 10
O=S(=O)(Nc1cc(Cl)ccc1N1CCC(c2ccc(Cl)cc2F)CC1)c1ccc2c(c1)CCC2 [Compound A-313, N-{5-chloro-2-[4-(4-chloro-2-fluorophenyl)piperidin-1-yl]phenyl}-2,3-dihydro-1H-indene-5-sulfonamide]	≤ 2
CCN1CCN(c2ccc(Cl)cc2NS(=O)(=O)c2ccc3c(c2)CCC3)C(=O)C1 [Compound A-314, N-[5-chloro-2-(4-ethyl-2-oxopiperazin-1-yl)phenyl]-2,3-dihydro-1H-indene-5-sulfonamide]	≥ 10
CCN1CCN(c2c(Cl)cccc2NS(=O)(=O)c2ccc3c(c2)CCC3)C(=O)C1 [Compound A-315, N-[3-chloro-2-(4-ethyl-2-oxopiperazin-1-yl)phenyl]-2,3-dihydro-1H-indene-5-sulfonamide]	≥ 10
O=S(=O)(Nc1cc(Cl)ccc1N1CCCC2(CCCCO2)C1)c1ccc2c(c1)CCC2 (centres unmarked) [Compound A-316, N-(5-chloro-2-{1-oxa-8-azaspiro[5.5]undecan-8-yl}phenyl)-2,3-dihydro-1H-indene-5-sulfonamide]	2.01 to 8
O=S1(=O)CCC2(CC1)CN(c1ccc(Cl)cc1NS(=O)(=O)c1ccc3c(c1)CCC3)CCO2 [Compound A-317, N-(5-chloro-2-{9,9-dioxo-1-oxa-9λ^6-thia-4-azaspiro[5.5]undecan-4-yl}phenyl)-2,3-dihydro-1H-indene-5-sulfonamide]	2.01 to 8
CN1CC(c2ccccc2)C2(CCN(c3ccccc3NS(=O)(=O)c3ccc(S(=O)(=O)N(C)C)cc3)CC2)C1=O (centres unmarked) [Compound A-318, N1,N1-dimethyl-N4-(2-{2-methyl-1-oxo-4-phenyl-2,8-diazaspiro[4.5]decan-8-yl}phenyl)benzene-1,4-disulfonamide]	2.01 to 8
CS(=O)(=O)c1ccc(S(=O)(=O)Nc2ccccc2N2CCC3(CC2)COc2cc(F)ccc23)cc1 [Compound A-319, N-(2-{6-fluoro-2H-spiro[1-benzofuran-3,4′-piperidin]-1′-yl}phenyl)-4-methanesulfonylbenzene-1-sulfonamide]	≤ 2
CN1CC2(CCN(c3ccccc3NS(=O)(=O)c3ccc(S(C)(=O)=O)cc3)CC2)c2ncccc21 [Compound A-320, 4-methanesulfonyl-N-(2-{1′-methyl-1′,2′-dihydrospiro[piperidine-4,3′-pyrrolo[3,2-b]pyridin]-1-yl}phenyl)benzene-1-sulfonamide; formic acid]	≥ 10
CN(C)S(=N)(=O)c1ccc(S(=O)(=O)Nc2ccccc2N2CCN(C(=O)C(C)(C)C)CC2)cc1 (centres unmarked) [Compound A-321, 4-({2-[4-(2,2-dimethylpropanoyl)piperazin-1-yl]phenyl}sulfamoyl)-N,N-dimethylbenzene-1-sulfonoimidamide]	≥ 10
CC(C)C(=O)N1CCN(c2ccccc2NS(=O)(=O)c2ccc(S(=O)(=O)N(C)C)cc2)CC1 [Compound A-322, N1,N1-dimethyl-N4-{2-[4-(2-methylpropanoyl)piperazin-1-yl]phenyl}benzene-1,4-disulfonamide]	8.01 to 9.99
CN(C)S(=O)(=O)c1ccc(S(=O)(=O)Nc2ccccc2N2CCC(C(=O)NC(C)(C)C)CC2)cc1 [Compound A-323, N-tert-butyl-1-{2-[4-(dimethylsulfamoyl)benzenesulfonamido]phenyl}piperidine-4-carboxamide]	2.01 to 8
CC(C)(C)C(=O)N1CCN(c2ccccc2NS(=O)(=O)c2ccc(S(C)(=O)=O)cc2)CC1 [Compound A-324, N-{2-[4-(2,2-dimethylpropanoyl)piperazin-1-yl]phenyl}-4-methanesulfonylbenzene-1-sulfonamide]	≥ 10
CN(C)C(=O)N1CCN(c2ccccc2NS(=O)(=O)c2ccc(S(=O)(=O)N(C)C)cc2)CC1 [Compound A-325, 4-{2-[4-(dimethylsulfamoyl)benzenesulfonamido]phenyl}-N,N-dimethylpiperazine-1-carboxamide]	≥ 10
O=C1COCCN1c1ccc(Cl)cc1NS(=O)(=O)c1ccc2c(c1)CCC2 [Compound A-326, N-[5-chloro-2-(3-oxomorpholin-4-yl)phenyl]-2,3-dihydro-1H-indene-5-sulfonamide]	≥ 10
CN(C)S(=O)(=O)c1ccc(S(=O)(=O)Cc2cccc(Cl)c2N2CCOCC2)cc1 [Compound A-327, 4-{[3-chloro-2-(morpholin-4-yl)phenyl]methanesulfonyl}-N,N-dimethylbenzene-1-sulfonamide]	≥ 10

Compound	AC50 [µM]
O=S(=O)(Nc1cc(Cl)ccc1N1CCC2(CCCO2)CC1)c1ccc2c(c1)CCC2 [Compound A-328, N-(5-chloro-2-{1-oxa-8-azaspiro[4.5]decan-8-yl}phenyl)-2,3-dihydro-1H-indene-5-sulfonamide]	≥ 10
Cn1nccc1S(=O)(=O)Nc1cccc(Cl)c1N1CCOCC1 [Compound A-329, N-[3-chloro-2-(morpholin-4-yl)phenyl]-1-methyl-1H-pyrazole-5-sulfonamide]	≥ 10
CN(C)S(=O)(=O)c1ccc(S(=O)(=O)Nc2cc(Cl)ccc2N2CCOCC2)nc1 [Compound A-330, N2-[5-chloro-2-(morpholin-4-yl)phenyl]-N5,N5-dimethylpyridine-2,5-disulfonamide]	≥ 10
CN1CC2(CCN(c3ccccc3NS(=O)(=O)c3ccc(S(=O)(=O)N(C)C)cc3)CC2)c2cccnc21 [Compound A-331, N1,N1-dimethyl-N4-(2-{1′-methyl-1′,2′-dihydrospiro[piperidine-4,3′-pyrrolo[2,3-b]pyridin]-1-yl}phenyl)benzene-1,4-disulfonamide]	≤ 2
CS(=O)(=O)c1ccc(S(=O)(=O)Nc2ccccc2N2CCC3(CC2)OCc2cc(F)ccc23)cc1 [Compound A-332, N-(2-{5-fluoro-3H-spiro[2-benzofuran-1,4′-piperidin]-1′-yl}phenyl)-4-methanesulfonylbenzene-1-sulfonamide]	2.01 to 8
CS(=O)(=O)c1ccc(S(=O)(=O)Nc2ccccc2N2CCC3(CCO3)CC2)cc1 [Compound A-333, 4-methanesulfonyl-N-(2-{1-oxa-7-azaspiro[3.5]nonan-7-yl}phenyl)benzene-1-sulfonamide]	≥ 10
Cc1ccc(S(=O)(=O)Nc2ccccc2N2CCN(C(=O)C(C)c3ccccc3)CC2)cc1 (centres unmarked) [Compound A-334, 4-methyl-N-{2-[4-(2-phenylpropanoyl)piperazin-1-yl]phenyl}benzene-1-sulfonamide]	2.01 to 8
CN(C)S(=O)(=O)c1ccc(S(=O)(=O)Nc2ccccc2N2CCN(C(=O)C(O)c3ccccc3)CC2)cc1 (centres unmarked) [Compound A-335, N4-{2-[4-(2-hydroxy-2-phenylacetyl)piperazin-1-yl]phenyl}-N1,N1-dimethylbenzene-1,4-disulfonamide]	≥ 10
CC(C)OC(=O)N1CCN(c2ccccc2NS(=O)(=O)c2ccc(S(=O)(=O)N(C)C)cc2)CC1 [Compound A-336, propan-2-yl 4-{2-[4-(dimethylsulfamoyl)benzenesulfonamido]phenyl}piperazine-1-carboxylate]	≤ 2
CN(C)S(=O)(=O)c1ccc(S(=O)(=O)Nc2ccccc2N2CCN(C(C)(C)C)CC2)cc1 [Compound A-337, N4-[2-(4-tert-butylpiperazin-1-yl)phenyl]-N1,N1-dimethylbenzene-1,4-disulfonamide]	8.01 to 9.99
CN(C)S(=O)(=O)c1ccc(S(=O)(=O)Nc2ccccc2N2CCC(C(=O)Nc3ccccc3)CC2)cc1 [Compound A-338, 1-{2-[4-(dimethylsulfamoyl)benzenesulfonamido]phenyl}-N-phenylpiperidine-4-carboxamide]	2.01 to 8
CN(C(=O)C1CCN(c2ccccc2NS(=O)(=O)c2ccc(S(=O)(=O)N(C)C)cc2)CC1)c1ccccc1 [Compound A-339, 1-{2-[4-(dimethylsulfamoyl)benzenesulfonamido]phenyl}-N-methyl-N-phenylpiperidine-4-carboxamide]	2.01 to 8
CN(C)S(=O)(=O)c1ccc(S(=O)(=O)Nc2cccc(Cl)c2N2CCOCC2)nc1 [Compound A-340, N2-[3-chloro-2-(morpholin-4-yl)phenyl]-N5,N5-dimethylpyridine-2,5-disulfonamide]	≥ 10
O=S(=O)(Nc1cccc(Cl)c1N1CCC(c2ccc(Cl)cc2F)CC1)c1ccc2c(c1)CCC2 [Compound A-341, N-{3-chloro-2-[4-(4-chloro-2-fluorophenyl)piperidin-1-yl]phenyl}-2,3-dihydro-1H-indene-5-sulfonamide]	≤ 2
CN(C)S(=O)(=O)c1ccc(C(Nc2cccc(Cl)c2N2CCOCC2)C(F)(F)F)cc1 (centres unmarked) [Compound A-342, 4-(1-{[3-chloro-2-(morpholin-4-yl)phenyl]amino}-2,2,2-trifluoroethyl)-N,N-dimethylbenzene-1-sulfonamide]	8.01 to 9.99
O=S(=O)(Nc1cc(Cl)ccc1N1CCOC2(CCOCC2)C1)c1ccc2c(c1)CCC2 [Compound A-343, N-(5-chloro-2-{1,9-dioxa-4-azaspiro[5.5]undecan-4-yl}phenyl)-2,3-dihydro-1H-indene-5-sulfonamide]	2.01 to 8
O=S(=O)(Nc1cc(Cl)ccc1N1CC23CCC2(COC3)C1)c1ccc2c(c1)CCC2 (centres unmarked) [Compound A-344, N-(5-chloro-2-{3-oxa-7-azatricyclo[3.3.2.0^1,^5]decan-7-yl}phenyl)-2,3-dihydro-1H-indene-5-sulfonamide]	2.01 to 8
